Columns and labels:
[1] = target: T1, MK2 (Homo sapiens, UniProt P49137); test: MK2 degradation in human SW1353 cells (MSD, 24 h); type: cell-based; parameters: endogenous in cells; host or cells: SW-1353 (ATCC HTB-94); key to MK2 MSD SW1353 degradation 24 h GMean External Abs DC50: A (<0.001 μM); B (0.001-0.01 μM); C (0.01-0.1 μM); D (>0.1 μM); —: “-”=not tested or inactive; conditions: for Dmax: read-out: MK2 MSD SW 1353 24 h Dmax %; for DC50: read-out: MK2 MSD SW1353 degradation 24 h GMean External Abs DC50
Method: MK2 Degradation in Human SW1353 Cells
The human chondrocyte cancer cell line SW-1353 (ATCC(HTB-94)) was cultured in 96 well plates (Corning 3894) at a density of 200,000 cells per well in 100 microlitres in complete growth medium of Leibovitz's L-15 Medium (Gibco) pus 10% fetal Bovine Serum (Corning) and Penicillin/Streptomycin (SolarBio) at 37 degrees Celsius. A serial dilution of each compound (usually 3 to 5 fold serial dilutions up to 10 separate concentration points) was added to individual wells from a 10 millimolar stock solution, at a background concentration of 0.1% DMSO and the cells were shaken at 600 rpm for 5 minutes and then were cultured for 24 hours at 37 degrees Celsius. Separately, a custom MSD (MesoScaleDiscovery, L15XA-3) plate for detection of human MK2 was prepared by coating the plate with the commercial AbCam ab247272 reagent in 1×Phosphate Buffered Saline at 40 microlitres per well and incubated at 4 degrees Celsius overnight. The next day, the MSD plate was washed with 150 microlitres of Tween buffered saline, blocked with MSD blocking buffer (3% Blocker A from MSD), and washed again.
(§1) The cell plate was centrifuged at 3,200 g for 5 minutes and the supernatant was discarded and 100 microlitres of RIPA lysis buffer (containing proteinase inhibitors, Boston BioProducts BP-115D) was added and the plate was sealed and shaken on ice for 20 minutes. The plate was centrifuged as before and 70 microlitres of sample lysate was added to the MSD plates and they were shaken at room temperature for 1 hour at 600 rpm. The MSD plate was washed 3 times as before and then the primary MK2 detection antibody (Santa Cruz sc-100393) was added at a final concentration of 1 microgram per ml at 25 microlitres per well and shaken at room temperature for 1 hour at 600 rpm.
(§2) After 3 more washes, the secondary detection antibody (SULFO-Tag anti rabbit antibody R32AB-5) was added at a final concentration of 1 microgram per ml at 25 microlitres per well and shaken at room temperature for 1 hour at 600 rpm. After 3 more washes, the 1×MSD (diluted from 5× concentrate with water) reading buffer was added at 150 microlitres per well and read on the MSD instrument Meso Sector S 600.
(§3) The inhibition/degradation curves and DC50 values were plotted and calculated using XL Fit (version v5.3.1.3) using equation 201 and a 4 parameter logistic model whereby fit=(A+((B−A)/(1+((x/C)D))) where A is the Bottom and B is the Top and C is the IC50 and D is the slope and high C is the signal for the DMSO treated cells and Low C is the signal is the signal for the lysis buffer.

[2] = target: T1, MK2; test: MK2 degradation in human THP-1 monocytic cells (MSD, 24 h); type: cell-based; parameters: endogenous in cells; key to MK2 MSD THP-1 degradation 24 h GMean External Abs DC50: A (<0.001 μM); B (0.001-0.01 μM); C (0.01-0.1 μM); D (>0.1 μM); —: “-”=not tested or inactive; conditions: for Dmax: THP-1, THP-1 cells; for DC50 / MK2 MSD THP-1 degradation 24 h GMean External Abs DC50: THP-1 cells; for DC50: read-out: MK2 MSD THP-1 degradation 24 h GMean External Abs DC50
Method: MK2 Degradation in Human THP-1 Monoctyic Cells
The human monocytic cancer cell line THP-1 (ATCC (TIB-202)) was cultured in 96 well plates (Corning 3894) at a density of 200,000 cells per well in 100 microlitres in complete growth medium of RPMI 1640 (Gibco) pus 10% fetal Bovine Serum (Corning) and Penicillin/Streptomycin (SolarBio) at 37 degrees Celsius and 5% CO2. A serial dilution of each compound (usually 3 to 5 fold serial dilutions up to 10 separate concentration points) was added to individual wells from a 10 millimolar stock solution, at a background concentration of 0.1% DMSO and the cells were shaken at 600 rpm for 5 minutes and then were cultured for 24 hours at 37 degrees Celsius and 5% carbon dioxide. Separately, a custom MSD (MesoScaleDiscovery, L15XA-3) plate for detection of human MK2 was prepared by coating the plate with the commercial AbCam ab247272 reagent in 1×Phosphate Buffered Saline at 40 microlitres per well and incubated at 4 degrees Celsius overnight. The next day, the MSD plate was washed with 150 microlitres of Tween buffered saline, blocked with MSD blocking buffer (3% Blocker A from MSD), and washed again.
as §1, §2, §3

T1 sequence (P49137 whole entry): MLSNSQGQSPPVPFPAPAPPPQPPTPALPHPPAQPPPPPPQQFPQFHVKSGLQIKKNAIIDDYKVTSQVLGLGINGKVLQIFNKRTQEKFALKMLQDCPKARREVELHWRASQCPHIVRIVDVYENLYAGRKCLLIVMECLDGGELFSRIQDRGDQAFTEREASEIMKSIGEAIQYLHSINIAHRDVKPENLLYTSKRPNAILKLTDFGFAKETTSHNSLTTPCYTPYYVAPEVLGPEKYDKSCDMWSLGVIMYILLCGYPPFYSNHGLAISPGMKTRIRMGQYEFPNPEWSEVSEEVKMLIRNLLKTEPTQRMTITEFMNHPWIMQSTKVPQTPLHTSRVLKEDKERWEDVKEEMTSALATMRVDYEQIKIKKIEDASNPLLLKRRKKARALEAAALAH

SMILES | Dmax [1] [%] | DC50 [1] [nM] | Dmax [2] [%] | DC50 [2] [nM] | MK2 MSD SW1353 degradation 24 h GMean External Abs DC50 [1] | MK2 MSD THP-1 degradation 24 h GMean External Abs DC50 [2]
Cn1c(=O)n(C2CCC(=O)NC2=O)c2ccc(N3CCC(CN4CCN(c5ccc(-c6cc(-c7cc8c([nH]7)CCNC8=O)ccn6)cc5)CC4)CC3)cc21 (stereo not shown) [Compound I-143] | > 75 | < 1 | > 75 | < 1 |  | 
Cn1c(=O)n(C2CCC(=O)NC2=O)c2cccc(C3CCN(CC4CCN(c5ccc(F)c(-c6cc(-c7cc8c([nH]7)CCNC8=O)ccn6)c5)CC4)CC3)c21 (stereo not shown) [Compound I-146] | < 50 | > 100 | < 50 | > 100 |  | 
CN1CC2(CNC(=O)c3c2[nH]c2c3CCc3cnc(-c4ccc(N5CCN(CCCCc6cccc7c6n(C)c(=O)n7C6CCC(=O)NC6=O)CC5)cc4F)cc3-2)C1 (stereo not shown) [Compound I-154] | > 75 | 10 to 100 | > 75 | 10 to 100 |  | 
CN1CC2(CNC(=O)c3c2[nH]c2c3CCc3cnc(-c4cc(N5CCN(CCCCc6cccc7c6n(C)c(=O)n7C6CCC(=O)NC6=O)CC5)ccc4F)cc3-2)C1 (stereo not shown) [Compound I-155] | < 50 | > 100 | < 50 | > 100 |  | 
C[C@@H]1CNc2c(sc3ccc4nc(-c5cncc(N6CCN(CCCCCc7cccc8c7n(C)c(=O)n8C7CCC(=O)NC7=O)CC6)c5)ccc4c23)C(=O)N1 (stereo partly shown) [Compound I-156] | > 75 | < 1 | > 75 | < 1 |  | 
C[C@@H]1CNc2c(sc3ccc4nc(-c5cncc(N6CCN(CCCc7ccc8c(c7)n(C)c(=O)n8C7CCC(=O)NC7=O)CC6)c5)ccc4c23)C(=O)N1 (stereo partly shown) [Compound I-157] | > 75 | < 1 | > 75 | < 1 |  | 
C[C@@H]1CNc2c(sc3ccc4nc(-c5cncc(N6CCN(CCCCCCCc7cccc8c7n(C)c(=O)n8C7CCC(=O)NC7=O)CC6)c5)ccc4c23)C(=O)N1 (stereo partly shown) [Compound I-158] | > 75 | 1 to 10 | > 75 | < 1 |  | 
C[C@@H]1CNc2c(sc3ccc4nc(-c5cncc(N6CCN(CC7CCN(c8cccc9c8n(C)c(=O)n9C8CCC(=O)NC8=O)CC7)CC6)c5)ccc4c23)C(=O)N1 (stereo partly shown) [Compound I-160] | > 75 | < 1 | > 75 | < 1 |  | 
C[C@@H]1CNc2c(sc3ccc4nc(-c5cncc(N6CCN(CC7CCN(c8ccc9c(c8)n(C)c(=O)n9C8CCC(=O)NC8=O)CC7)CC6)c5)ccc4c23)C(=O)N1 (stereo partly shown) [Compound I-161] | > 75 | < 1 | > 75 | < 1 |  | 
C[C@@H]1CNc2c(sc3ccc4nc(-c5cncc(C6CCN(CC7CCN(c8ccc9c(c8)n(C)c(=O)n9C8CCC(=O)NC8=O)CC7)CC6)c5)ccc4c23)C(=O)N1 (stereo partly shown) [Compound I-165] | > 75 | < 1 | > 75 | < 1 |  | 
Cn1c(=O)n(C2CCC(=O)NC2=O)c2cccc(CCCCN3CC4(CCN(c5ccc6c(c5)Cn5cc(-c7ccc(F)cc7)cc5-c5nccn5-6)C4)C3)c21 (stereo not shown) [Compound I-167] | < 50 | > 100 | < 50 | > 100 |  | 
Cn1c(=O)n(C2CCC(=O)NC2=O)c2ccc(CCCCCCN3CC4(CCN(c5ccc6c(c5)Cn5cc(-c7ccc(F)cc7)cc5-c5nccn5-6)C4)C3)cc21 (stereo not shown) [Compound I-168] | < 50 | > 100 | < 50 | > 100 |  | 
C[C@@H]1CNc2c(sc3ccc4nc(-c5ccc(N6CCN(CCCCCCCCc7cccc8c7n(C)c(=O)n8C7CCC(=O)NC7=O)CC6)cc5)ccc4c23)C(=O)N1 (stereo partly shown) [Compound I-170] | > 75 | 1 to 10 | > 75 | 1 to 10 |  | 
C[C@@H]1CNc2c(sc3ccc4nc(-c5ccc(N6CCN(CCCCCc7cccc8c7n(C)c(=O)n8C7CCC(=O)NC7=O)CC6)cc5)ccc4c23)C(=O)N1 (stereo partly shown) [Compound I-171] | > 75 | 1 to 10 | 50 to 75 | 1 to 10 |  | 
C[C@@H]1CNc2c(sc3ccc4nc(-c5ccc(N6CCN(CCCc7cccc8c7n(C)c(=O)n8C7CCC(=O)NC7=O)CC6)cc5)ccc4c23)C(=O)N1 (stereo partly shown) [Compound I-172] | > 75 | < 1 | > 75 | < 1 |  | 
C[C@@H]1CNc2c(sc3ccc4nc(-c5ccc(N6CCN(CCCc7ccc8c(c7)n(C)c(=O)n8C7CCC(=O)NC7=O)CC6)cc5)ccc4c23)C(=O)N1 (stereo partly shown) [Compound I-173] | > 75 | < 1 | > 75 | < 1 |  | 
C[C@@H]1CNc2c(sc3ccc4nc(-c5ccc(N6CCN(CCCCCc7ccc8c(c7)n(C)c(=O)n8C7CCC(=O)NC7=O)CC6)cc5)ccc4c23)C(=O)N1 (stereo partly shown) [Compound I-174] | > 75 | < 1 | > 75 | < 1 |  | 
C[C@@H]1CNc2c(sc3ccc4nc(-c5ccc(N6CCN(CCCCCCCCc7ccc8c(c7)n(C)c(=O)n8C7CCC(=O)NC7=O)CC6)cc5)ccc4c23)C(=O)N1 (stereo partly shown) [Compound I-175] | > 75 | 1 to 10 | > 75 | 1 to 10 |  | 
C[C@@H]1CNc2c(sc3ccc4nc(-c5cccc(N6CCN(CCCCCCCCc7ccc8c(c7)n(C)c(=O)n8C7CCC(=O)NC7=O)CC6)c5)ccc4c23)C(=O)N1 (stereo partly shown) [Compound I-176] | > 75 | 1 to 10 | 50 to 75 | 1 to 10 |  | 
C[C@@H]1CNc2c(sc3ccc4nc(-c5cccc(N6CCN(CCCCCCCCCCc7cccc8c7n(C)c(=O)n8C7CCC(=O)NC7=O)CC6)c5)ccc4c23)C(=O)N1 (stereo partly shown) [Compound I-177] | > 75 | 10 to 100 | > 75 | 10 to 100 |  | 
C[C@@H]1CNc2c(sc3ccc4nc(-c5cccc(N6CCN(CCCCCCCCCCc7ccc8c(c7)n(C)c(=O)n8C7CCC(=O)NC7=O)CC6)c5)ccc4c23)C(=O)N1 (stereo partly shown) [Compound I-178] | > 75 | 10 to 100 | > 75 | 10 to 100 |  | 
Cn1c(=O)n(C2CCC(=O)NC2=O)c2cccc(CCN3CCN(c4ccc(-c5cc(-c6cc7c([nH]6)C6(CC6)CNC7=O)ccn5)c(F)c4)CC3)c21 (stereo not shown) [Compound I-179] | > 75 |  | > 75 |  | — | —
COc1cc(-c2ccc3c(ccc4sc5c(c43)NC[C@@H](C)NC5=O)n2)c(F)cc1N1CCN(CC2CCN(c3ccc4c(c3)n(C)c(=O)n4C3CCC(=O)NC3=O)CC2)CC1 (stereo partly shown) [Compound I-180] | > 75 |  | > 75 |  |  | 
C[C@@H]1CNc2c(sc3ccc4nc(N5C[C@H]6C[C@@H]5CN6CC5CCN(c6cccc7c6n(C)c(=O)n7C6CCC(=O)NC6=O)CC5)ccc4c23)C(=O)N1 (stereo partly shown) [Compound I-182] | < 50 |  | < 50 |  | — | —

Source: patent US20230135894A1, “MK2 DEGRADERS AND USES THEREOF” (Kymera Therapeutics, Inc., priority 2021, published 2023)
